In data set [1] the target is blue mussel phenoloxidase (PO). The data set is described as follows: Blue mussel PO inhibition assay. It counts as biochemical, Mytilus edulis. As to conditions: for IC50: purified enzyme, 25 °C, 10 mM L-DOPA, 50 mM phosphate buffer pH 6.8, 2 h incubation, triplicate; for enzyme inhibitory activity towards blue mussel PO (in words): compared to DBHB (1). The procedure:
PO activity was measured spectrophotometrically as described earlier. The purified enzyme was incubated at 25 °C with 10 mM L-DOPA in 50 mM phosphate buffer of pH 6.8. PO activity was determined by monitoring the increase of absorbance at 475 nm. One unit of enzyme activity was defined as the amount of enzyme that catalyzes the formation of 1 μmol dopachrome per minute under the described experimental conditions. Hemibastadin congeners were added to the assay at concentrations of up to 50 μg/mL. In addition, the biocide TBT (10 μg/mL) was used as a positive standard. Aliquots of pure enzyme were incubated for 2 h with hemibastadin analogues, then the enzyme activity was recorded with L-DOPA or catechol (10 mM) as substrates. All assays were run in triplicate. The results are presented as the concentration of compounds that reduces enzyme velocity by 50% (IC50 values). IC50 values were calculated using MINITAB (Version 14).

For a further data set, the system named is barnacle larvae. More on the design: method as in PMID 17713818. Conditions: cited from earlier work.
For data set [2], the target named is blue mussel phenoloxidase (PO). More on the design: method as in PMID 21547349. As to conditions: cited from earlier work; for IC50: data derived from a previous investigation, read-out: IC50, inhibition of blue mussel phenoloxidase (PO).

Like-named read-outs stand apart in the source and are kept apart here.

In turn, `O=C(NCCc1cc(Br)c(O)c(Br)c1)/C(Cc1cc(Br)c(O)c(Br)c1)=N/O` [Compound 1, 5,5′-dibromohemibastadin-1] showed an IC50 in data set [1] of 0.81 µM. Also, in the data set on barnacle larvae, the “antifouling activity (in words)” value is “strong antifouling activity”. With `O=C(NCCc1ccc(O)cc1)/C(Cc1ccc(O)cc1)=N/O` [Compound 2, Norbromohemibastadin-1], the IC50 in data set [2] was 2.41 µM. With `NC(Cc1ccc(O)cc1)C(=O)NCCc1ccc(O)cc1` (stereo not shown) [Compound 3, Tyrosinyltyramine], in data set [2], the “inhibition of blue mussel PO (in words)” value is “completely inactive” and the 50% inhibitory concentration (IC50) was over 100 µM. `O=C(NCCc1cc(I)c(O)c(I)c1)/C(Cc1cc(I)c(O)c(I)c1)=N/O` [Compound 4, Tetraiodo-norbromohemibastadin-1] displayed an IC50 in data set [1] of 1.14 µM.

For `O=C(NCCc1cc(Cl)c(O)c(Cl)c1)/C(Cc1cc(Cl)c(O)c(Cl)c1)=N/O` [Compound 5, Tetrachloro-norbromohemibastadin-1], in data set [1], the 50% inhibitory concentration (IC50) was 1.19 µM. `CO/N=C(\Cc1cc(Br)c(OC)c(Br)c1)C(=O)NCCc1cc(Br)c(OC)c(Br)c1` [Compound 6, Tri-O-methyl-5,5′-dibromohemibastadin-1] returned an IC50 in data set [1] of 18.9 ± 0.77 µM. Further, the “reduction of the enzyme inhibitory activity compared to the parent compound 1” value in data set [1] (relative to DBHB (1)) is “more than twenty-fold”. `O=C(NC1CCCCC1)/C(Cc1cc(Br)c(O)c(Br)c1)=N/O` [Compound 7, N-cyclohexyl-3-(3,5-dibromo-4-hydroxyphenyl)-2-(2-hydroxyimino)-propanamide] returned an IC50 in data set [1] of 11.7 ± 0.49 µM. As for `CC(C)CNC(=O)/C(Cc1cc(Br)c(O)c(Br)c1)=N/O` [Compound 8, N-(2-methyl-propyl)-3-(3,5-dibromo-4-hydroxyphenyl)-2-(2-hydroxyimino)-propanamide], in data set [1], half-maximal inhibition (IC50) required 17.2 ± 0.76 µM. In data set [1], `CCCCCCNC(=O)/C(Cc1cc(Br)c(O)c(Br)c1)=N/O` [Compound 9, N-hexyl-3-(3,5-dibromo-4-hydroxyphenyl)-2-(2-hydroxyimino)-propanamide] came in with an IC50 of 16.3 ± 0.83 µM. For `O=C(NCCc1ccccc1)/C(Cc1cc(Br)c(O)c(Br)c1)=N/O` [Compound 10, N-2-phenylethyl-3-(3,5-dibromo-4-hydroxyphenyl)-2-(2-hydroxyimino)-propanamide], in data set [1], the “enzyme inhibitory activity towards blue mussel PO (in words)” value is “strong reduction of inhibitory activity” and the IC50 came to 22.7 ± 0.88 µM.

`O=C(NCCc1c[nH]cn1)/C(Cc1cc(Br)c(O)c(Br)c1)=N/O` [Compound 11, N-[2-(4-imidazolyl)-ethyl]-3-(3,5-dibromo-4-hydroxyphenyl)-2-(2-hydroxyimino)-propanamide]: the melting point was found to be 130 °C. In addition, in data set [1], the half-inhibitory concentration (IC50) stood at 33.2 ± 1.72 µM.

As for `O=C(NCCc1c[nH]c2ccccc12)/C(Cc1cc(Br)c(O)c(Br)c1)=N/O` [Compound 12, N-[2-(3-indolyl)-ethyl]-3-(3,5-dibromo-4-hydroxyphenyl)-2-(2-hydroxyimino)-propanamide], in data set [1], the “enzyme inhibitory activity towards blue mussel PO (in words)” value is listed as “complete loss of activity” and the IC50 is over 100 µM.

Consider `CC(=O)C(C)=NO` [Compound 13, 2,3-butanedione monoxime, reference compound], for which the IC50 in data set [2] was 8.7 µM.

Broadly, the IC50 is the midpoint of a concentration-inhibition curve. The term melting point denotes the temperature of the solid-liquid transition.

The record behind these values is publication PMC4446618, “SAR of Sponge-Inspired Hemibastadin Congeners Inhibiting Blue Mussel PhenolOxidase” (Marine Drugs, 2015).
